According to ChEMBL document CHEMBL1201862, “PubChem BioAssay data set” (2004):
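Values below derive from 48-hour exposures of cells grown in 96-well plates, with endpoints linearly interpolated between the two concentrations bracketing the appropriate inhibition level. GI50: concentration for 50% inhibition of growth.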 The source made the active and inactive calls. Cut-off read from the data, not from the text of the source: active = GI50 up to about 1.1 µM and inactive = higher.

Tests used:
Assay in all cases: growth of human tumour cells (NCI), 48 h
786-0 = test system: 786-0
A498 = test system: A498
A549 = test system: A549
ACHN = test system: ACHN
BT-549 = test system: BT-549
CAKI-1 = test system: CAKI-1
CCRF-CEM = test system: CCRF-CEM
COLO 205 = test system: COLO 205
DU-145 = test system: DU-145
EKVX = test system: EKVX
HCC 2998 = test system: HCC 2998
HCT-116 = test system: HCT-116
HCT-15 = test system: HCT-15
HL-60 = test system: HL-60
HOP-62 = test system: HOP-62
HOP-92 = test system: HOP-92
HT-29 = test system: HT-29
Hs-578T = test system: Hs-578T
IGROV-1 = test system: IGROV-1
K562 = test system: K562
KM12 = test system: KM12
LOX IMVI = test system: LOX IMVI
M14 = test system: M14
MCF7 = test system: MCF7
MDA-MB-231 = test system: MDA-MB-231
MDA-MB-435 = test system: MDA-MB-435
MDA-N = test system: MDA-N
MOLT-4 = test system: MOLT-4
Malme-3M = test system: Malme-3M
NCI-H226 = test system: NCI-H226
NCI-H23 = test system: NCI-H23
NCI-H460 = test system: NCI-H460
NCI-H522 = test system: NCI-H522
NCI/ADR-RES = test system: NCI/ADR-RES
OVCAR-3 = test system: OVCAR-3
OVCAR-4 = test system: OVCAR-4
OVCAR-5 = test system: OVCAR-5
OVCAR-8 = test system: OVCAR-8
PC-3 = test system: PC-3
RPMI-8226 = test system: RPMI-8226
RXF 393 = test system: RXF 393
SF-268 = test system: SF-268
SF-295 = test system: SF-295
SF-539 = test system: SF-539
SK-MEL-28 = test system: SK-MEL-28
SK-MEL-2 = test system: SK-MEL-2
SK-MEL-5 = test system: SK-MEL-5
SK-OV-3 = test system: SK-OV-3
SN12C = test system: SN12C
SNB-19 = test system: SNB-19
SNB-75 = test system: SNB-75
SR = test system: SR
SW-620 = test system: SW-620
T47D = test system: T47D
TK-10 = test system: TK-10
U-251 = test system: U-251
UACC-257 = test system: UACC-257
UACC-62 = test system: UACC-62
UO-31 = test system: UO-31
DMS-114 = test system: DMS-114
HOP-18 = test system: HOP-18
KM-20L2 = test system: KM-20L2
LXFL 529 = test system: LXFL 529
M19-MEL = test system: M19-MEL
SNB-78 = test system: SNB-78

OC1(c2ccc(Cl)cc2)c2ccccc2C2=Nc3ccccc3CN21 (centres undefined)
GI50 (786-0): 13.1 µM (inactive)
GI50 (A498): 27.6 µM (inactive)
GI50 (A549): 12.7 µM (inactive)
GI50 (ACHN): 8.59 µM (inactive)
GI50 (BT-549): > 100 µM (inactive)
GI50 (CAKI-1): 58.3 µM (inactive)
GI50 (CCRF-CEM): > 65.9 µM (inactive)
GI50 (COLO 205): > 69.2 µM (inactive)
GI50 (DU-145): 36.2 µM (inactive)
GI50 (EKVX): > 45.2 µM (inactive)
GI50 (HCC 2998): > 71.4 µM (inactive)
GI50 (HCT-116): 6.9 µM (inactive)
GI50 (HCT-15): 30.8 µM
GI50 (HL-60): 18.4 µM (inactive)
GI50 (HOP-62): 12.9 µM (inactive)
GI50 (HOP-92): > 60.3 µM (inactive)
GI50 (HT-29): 14.8 µM (inactive)
GI50 (Hs-578T): 23 µM (inactive)
GI50 (IGROV-1): 39.2 µM (inactive)
GI50 (K562): > 100 µM (inactive)
GI50 (KM12): 28 µM (inactive)
GI50 (LOX IMVI): 25.6 µM (inactive)
GI50 (M14): > 100 µM (inactive)
GI50 (MCF7): 21.9 µM (inactive)
GI50 (MDA-MB-231): 34.6 µM (inactive)
GI50 (MDA-MB-435): 79.3 µM (inactive)
GI50 (MDA-N): > 70 µM (inactive)
GI50 (MOLT-4): 61.8 µM (inactive)
GI50 (Malme-3M): 30.5 µM (inactive)
GI50 (NCI-H226): 37.8 µM (inactive)
GI50 (NCI-H23): > 44.9 µM (inactive)
GI50 (NCI-H460): 37.6 µM (inactive)
GI50 (NCI-H522): 25.1 µM (inactive)
GI50 (NCI/ADR-RES): 25 µM (inactive)
GI50 (OVCAR-3): 2.96 µM (inactive)
GI50 (OVCAR-4): 20.6 µM (inactive)
GI50 (OVCAR-5): > 75.2 µM (inactive)
GI50 (OVCAR-8): 13.2 µM (inactive)
GI50 (PC-3): 45.8 µM (inactive)
GI50 (RPMI-8226): 33.4 µM (inactive)
GI50 (RXF 393): 21 µM (inactive)
GI50 (SF-268): 33.2 µM (inactive)
GI50 (SF-295): 20.4 µM (inactive)
GI50 (SF-539): 39.6 µM (inactive)
GI50 (SK-MEL-28): 29 µM (inactive)
GI50 (SK-MEL-2): > 51.2 µM (inactive)
GI50 (SK-MEL-5): > 46.1 µM (inactive)
GI50 (SK-OV-3): 38.5 µM (inactive)
GI50 (SN12C): 22.2 µM (inactive)
GI50 (SNB-19): 36.1 µM (inactive)
GI50 (SNB-75): 17.8 µM (inactive)
GI50 (SR): 5.93 µM (inactive)
GI50 (SW-620): 26.9 µM (inactive)
GI50 (T47D): 45.5 µM (inactive)
GI50 (TK-10): > 95.5 µM (inactive)
GI50 (U-251): 23.7 µM (inactive)
GI50 (UACC-257): > 100 µM (inactive)
GI50 (UACC-62): > 86.9 µM (inactive)
GI50 (UO-31): 34.4 µM (inactive)

O=C(COc1ccc2c(=O)cc(-c3ccccc3)oc2c1)N1CCN(c2ccccc2)CC1
GI50 (786-0): 41 µM (inactive)
GI50 (A498): > 10 µM (inactive)
GI50 (A549): 39.2 µM (inactive)
GI50 (ACHN): 50.8 µM (inactive)
GI50 (CCRF-CEM): 24.7 µM (inactive)
GI50 (COLO 205): 37 µM (inactive)
GI50 (DMS-114): 24.5 µM (inactive)
GI50 (EKVX): 28.4 µM (inactive)
GI50 (HCC 2998): 33.1 µM (inactive)
GI50 (HCT-116): 71.8 µM (inactive)
GI50 (HCT-15): 41.2 µM
GI50 (HL-60): 15.8 µM (inactive)
GI50 (HOP-18): 41.9 µM (inactive)
GI50 (HOP-62): 78.7 µM (inactive)
GI50 (IGROV-1): > 100 µM (inactive)
GI50 (K562): 18 µM (inactive)
GI50 (KM-20L2): 37.7 µM (inactive)
GI50 (KM12): 60.5 µM (inactive)
GI50 (LOX IMVI): 57.3 µM (inactive)
GI50 (LXFL 529): 34.1 µM (inactive)
GI50 (M14): 76.6 µM (inactive)
GI50 (M19-MEL): 62.2 µM (inactive)
GI50 (MOLT-4): 11.1 µM (inactive)
GI50 (Malme-3M): 51.6 µM (inactive)
GI50 (NCI-H226): 72.4 µM (inactive)
GI50 (NCI-H23): 46.1 µM (inactive)
GI50 (NCI-H460): 31.8 µM (inactive)
GI50 (NCI-H522): 18.8 µM (inactive)
GI50 (OVCAR-3): 42.9 µM (inactive)
GI50 (OVCAR-5): 34.6 µM (inactive)
GI50 (OVCAR-8): 26.4 µM (inactive)
GI50 (RPMI-8226): 14.2 µM (inactive)
GI50 (RXF 393): 16.7 µM (inactive)
GI50 (SF-268): 46.2 µM (inactive)
GI50 (SF-295): 52.6 µM (inactive)
GI50 (SF-539): 71.1 µM (inactive)
GI50 (SK-MEL-28): 49.8 µM (inactive)
GI50 (SK-MEL-2): 21.1 µM (inactive)
GI50 (SK-MEL-5): 25.4 µM (inactive)
GI50 (SK-OV-3): > 100 µM (inactive)
GI50 (SN12C): 41.4 µM (inactive)
GI50 (SNB-19): 36.6 µM (inactive)
GI50 (SNB-75): 27.5 µM (inactive)
GI50 (SNB-78): > 100 µM (inactive)
GI50 (SW-620): 83.8 µM (inactive)
GI50 (TK-10): 44.6 µM (inactive)
GI50 (U-251): 38.5 µM (inactive)
GI50 (UACC-257): 43 µM (inactive)
GI50 (UACC-62): 57.9 µM (inactive)
GI50 (UO-31): 19.8 µM (inactive)
